Results as given in BindingDB's records for patent US9670214 (Dana-Farber Cancer Institute, 2017).

Tests used:
[1] = molecular target: Non-specific protein-tyrosine kinase [T818I] (Homo sapiens, UniProt A9UEZ6, T818I); assay: Kinase Assay; details: pH 7.5
Text: (§1) Recombinant abl was expressed in Sf9 insect cells and purified as described above. Bcr-abl immune complexes were obtained with Ab-3 anti-abl monoclonal antibody (Oncogene Science) from Ba/F3.p210 lysates as previously described. […] (Calbiochem buffer and protocol). The reaction was stopped by addition of Laemmli buffer and the proteins were resolved by SDS-PAGE in a 4-20% gel. The phosphoproteins were visualized by autoradiography and the autophosphorylation quantitated using a phosphoimager (STORM, Molecular Devices).

[2] = molecular target: Non-specific protein-tyrosine kinase (Homo sapiens, UniProt A9UEZ6); assay: Kinase Assay; details: pH 7.5
Chain of Non-specific protein-tyrosine kinase (A9UEZ6 whole entry): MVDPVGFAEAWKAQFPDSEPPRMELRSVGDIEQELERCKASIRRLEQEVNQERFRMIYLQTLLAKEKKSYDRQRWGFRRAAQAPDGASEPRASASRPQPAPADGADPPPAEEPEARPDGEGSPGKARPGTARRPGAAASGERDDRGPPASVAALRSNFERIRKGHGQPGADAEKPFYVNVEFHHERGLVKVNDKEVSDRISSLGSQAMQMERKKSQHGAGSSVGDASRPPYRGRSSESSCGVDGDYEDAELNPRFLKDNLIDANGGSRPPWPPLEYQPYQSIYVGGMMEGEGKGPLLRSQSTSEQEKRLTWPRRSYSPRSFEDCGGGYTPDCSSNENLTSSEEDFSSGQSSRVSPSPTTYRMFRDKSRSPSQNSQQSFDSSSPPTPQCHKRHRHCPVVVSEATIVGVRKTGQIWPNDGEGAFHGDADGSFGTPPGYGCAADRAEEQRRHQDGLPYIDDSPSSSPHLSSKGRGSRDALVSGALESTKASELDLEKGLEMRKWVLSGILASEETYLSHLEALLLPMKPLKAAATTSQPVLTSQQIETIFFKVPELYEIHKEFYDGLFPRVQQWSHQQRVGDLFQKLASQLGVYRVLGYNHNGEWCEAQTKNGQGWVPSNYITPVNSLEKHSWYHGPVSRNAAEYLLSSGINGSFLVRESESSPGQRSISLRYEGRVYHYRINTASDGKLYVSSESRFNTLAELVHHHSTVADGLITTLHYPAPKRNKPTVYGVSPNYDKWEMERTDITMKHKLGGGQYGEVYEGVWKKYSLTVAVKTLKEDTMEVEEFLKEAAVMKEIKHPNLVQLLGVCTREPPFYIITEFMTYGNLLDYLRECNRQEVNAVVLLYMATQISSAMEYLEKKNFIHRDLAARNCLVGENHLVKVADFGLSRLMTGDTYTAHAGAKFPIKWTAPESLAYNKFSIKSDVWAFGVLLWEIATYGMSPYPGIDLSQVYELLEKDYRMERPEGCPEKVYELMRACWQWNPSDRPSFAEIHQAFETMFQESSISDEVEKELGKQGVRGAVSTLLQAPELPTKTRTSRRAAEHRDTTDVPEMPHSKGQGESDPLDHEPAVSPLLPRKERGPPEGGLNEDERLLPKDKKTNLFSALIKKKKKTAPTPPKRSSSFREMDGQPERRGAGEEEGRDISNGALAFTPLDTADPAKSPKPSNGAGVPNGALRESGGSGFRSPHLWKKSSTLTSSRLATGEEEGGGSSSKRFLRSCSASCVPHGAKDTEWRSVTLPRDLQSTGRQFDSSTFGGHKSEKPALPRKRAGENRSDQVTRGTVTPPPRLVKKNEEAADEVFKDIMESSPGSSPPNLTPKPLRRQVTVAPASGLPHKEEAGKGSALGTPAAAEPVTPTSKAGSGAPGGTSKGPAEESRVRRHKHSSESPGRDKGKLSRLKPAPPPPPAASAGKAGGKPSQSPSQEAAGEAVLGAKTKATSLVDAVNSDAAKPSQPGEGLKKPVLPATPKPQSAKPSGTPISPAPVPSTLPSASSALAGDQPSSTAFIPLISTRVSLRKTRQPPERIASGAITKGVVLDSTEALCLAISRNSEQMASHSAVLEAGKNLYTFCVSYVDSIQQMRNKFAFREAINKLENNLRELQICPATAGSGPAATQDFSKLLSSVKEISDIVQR
Text: as §1

Chain of Non-specific protein-tyrosine kinase [T818I] (A9UEZ6 as listed by the source T818I): as the sequence (A9UEZ6 whole entry) above, with T818I counted along it

SMILES: FC(F)(F)Oc1ccc(Nc2ncnc3c2cnn3Cc2cccnc2)cc1 [US9670214, TABLE 10.30]
- IC50 [1]: 600 nM
- IC50 [2]: 30 nM
